Experimental data taken from patent publication US6706291B1, “Poultry producibility improver and poultry producibility improvement method” (Taiyo Kagaku Co., Ltd., priority 2001, dated 2004).

Columns and labels:
[1] = system: White Cornish edible chickens; test: Test Example 3: cholesterol content of breast meat, leg meat and chicken fat; assay type: in vivo
Source text: (§1) White Cornish edible chickens were bred for 7 weeks from newly-hatched chickens. The hatched chickens were divided into 17 groups, the groups AA to QQ of 200 chickens per group. […] The edible chickens were fed with a commercially available formula feed for edible chickens, and allowed to take feed and water ad libitum. […] The liveability is shown in Table 17 and the weekly body weight gain in Table 18, respectively. […] Furthermore, changes in the TBA value and in the POV value of each of the breast meat, the leg meat and the chicken fat after storage were determined in the same manner. The cholesterol content is shown in Table 19, the change in the K value after storage in Table 20, the change in the TBA value after storage in Table 21, and the change in the POV value after storage in Table 22, respectively.

[2] = system: eggs of White Leghorn laying hens; test: Test Example 1: Haugh unit and vitamin E content of eggs during storage; assay type: in vivo, chicken; settings: for Haugh Unit / Vitamin E Content: eggs collected after 4 months
Procedure: Here, the term “Haugh unit” mentioned above refers to an index showing an extent of deterioration of thick albumen and is defined as the numeral calculated using the equation: […]
wherein H is a height (mm) of thick albumen; and W is an egg weight (g).
Furthermore, after 4 months from initiation of the test, 20 eggs each were collected from each poultry house. Haugh unit and vitamin E content were determined on the day of collection for 10 of the eggs, and after 2 weeks of storage at 4° C. for the remaining 10 eggs, respectively.

[3] = system: eggs of Isabrown laying hens; test: Test Example 2: DHA, EPA, vitamin E content and Haugh unit of eggs during storage; assay type: in vivo, chicken; settings: for EPA Content / Haugh Unit / Vitamin E Content / DHA Content: eggs after 4 months; for DHA Content: feed with fish oil and vitamin E
Procedure: Isabrown laying hens were bred in poultry houses of the windless vertical 2-shelf cage type. Seventeen poultry houses a to q (10,000 hens/poultry house) were set, and a field test concerning suppression of a decrease in highly unsaturated fatty acid content during storage of eggs laid by laying hens was carried out. […] In addition, the laying hens were fed with a feed prepared by adding 2 kg of a fish oil and 10 g of vitamin E to 100 kg of a cormnercially available feed for laying hens. In addition, the laying hens were allowed to take water ad libitum.
After 4 months from initiation of the test, 20 eggs each were collected from each poultry house. DHA content and EPA content of the eggs, as indices for highly unsaturated fatty acid, were determined on the day of collection for 10 of the eggs, and after 2 weeks of storage at 4° C. for the remaining 10 eggs, respectively. Vitamin E content and Haugh unit were also determined. A change in the DHA content, a change in the EPA content, a change in the vitamin E content, and a change in the Haugh unit are shown in Tables 12, 13, 14 and 15, respectively.

[4] = system: White Cornish edible chickens; test: Test Example 3: liveability and weekly body weight gain of edible chickens; assay type: in vivo, chicken
Source text: as §1

[5] = system: White Cornish edible chickens; test: Test Example 3: K value, TBA value, POV value of chicken meat after storage; assay type: in vivo; settings: for K Value of Chicken Meat after 10 Days of Storage: storage at 4° C.
Source text: In the present invention, the expression “keeping freshness of chicken meat” refers to suppression of an increase during storage in a numerical value, such as K value (ratio of inosine and hypoxanthine content to the sum of ATP, ADP, AMP, IMP, inosine and hypoxanthine contents in chicken meat as expressed in percentage), VBN value (a total amount of volatile basic substances, such as ammonia and trimethylamine, in chicken meat), TMA value (trimethylamine content in chicken meat) and polyamine content (total amount of decarboxylated products of free amino acids, such as putrescine, cadaverine, agmatine, histamine, tyramine, tryptamine and spermidine, in chicken meat), metmyoglobin formation ratio (ratio of myoglobin oxidized to metmyoglobin in muscular tissue of chicken meat), TBA value (ratio of fatty acids oxidized to fatty acids in chicken meat), POV value (peroxide value: ratio of oil or fat oxidized in chicken meat), and bacterial cell count (number of bacterial cells in chicken meat). In the present invention, it is preferable that at least one selected from the group consisting of K value, TBA value and POV value is used as an index for keeping freshness of chicken meat. Because the K value is most generally used as an index for freshness, it is more preferable to use the K value as an index for keeping freshness of chicken meat. White Cornish edible chickens were bred for 7 weeks from newly-hatched chickens. The hatched chickens were divided into 17 groups, the groups AA to QQ of 200 chickens per group. […] The edible chickens were fed with a commercially available formula feed for edible chickens, and allowed to take feed and water ad libitum. […] The liveability is shown in Table 17 and the weekly body weight gain in Table 18, respectively. […] Furthermore, changes in the TBA value and in the POV value of each of the breast meat, the leg meat and the chicken fat after storage were determined in the same manner. The cholesterol content is shown in Table 19, the change in the K value after storage in Table 20, the change in the TBA value after storage in Table 21, and the change in the POV value after storage in Table 22, respectively.

[6] = system: White Leghorn laying hens; test: Test Example 1: field test on producibility of laying hens (liveability, egg production indices); assay type: in vivo, chicken; settings: for Liveability: additive in feed entire breeding period; for Number of Eggs Produced / Weight of Produced Eggs: 30,000 hens/poultry house
Procedure: White Leghorn laying hens at 121 days of age were housed in poultry houses of the windless vertical 6-shelf cage type and bred therein for 1 year. Eighteen poultry houses A to R (30,000 hens/poultry house) were set, and a field test concerning improvement in producibility by laying hens was carried out.
The laying hens were fed with a commercially available formula feed for laying hens, and allowed to take water ad libitum.
As indices for the producibility, there were obtained a liveability, a rate of laying, each egg weight and a weight of eggs produced per day, each item being at 4 months after initiation of the test, and a total number of eggs produced and a total egg weight during the 4-month period from initiation of the test. The same items were also determined at 8 and 12 months after initiation of the test. […] In the following tables, the indications “4M, 8M, 12M” stand for 4 months, 8 months, and 12 months after initiation of the test, respectively.

[7] = After 2 Weeks of Storage at 4° C.
[8] = Immediately After Egg Production

(−)-epigallocatechin gallate
Cholesterol Content ([1]; Breast Meat): 72.0 mg based on 100 g of chicken meat or chicken fat
Cholesterol Content ([1]; Chicken Fat): 227.6 mg based on 100 g of chicken meat or chicken fat
Cholesterol Content ([1]; Leg Meat): 86.0 mg based on 100 g of chicken meat or chicken fat
Effect on decrease in Haugh unit and vitamin E content during egg storage, in words ([2]; 2 weeks of storage at 4° C.): no effect was found
Haugh Unit [2, 7]: 79.9
Vitamin E Content [2, 7]: 2.0 mg based on 100 g of egg yolk solution
Haugh Unit [2, 8]: 98.0
Vitamin E Content [2, 8]: 3.1 mg based on 100 g of egg yolk solution
Effect on decrease in DHA, EPA, vitamin E content and Haugh unit during egg storage, in words ([3]; 2 weeks of storage at 4° C.): no effect was found
EPA Content [3, 7]: 84.0 mg based on 100 g of egg yolk solution
Haugh Unit [3, 7]: 80.9
Vitamin E Content [3, 7]: 1.7 mg based on 100 g of egg yolk solution
EPA Content [3, 8]: 103.8 mg based on 100 g of egg yolk solution
Haugh Unit [3, 8]: 96.5
Vitamin E Content [3, 8]: 3.0 mg based on 100 g of egg yolk solution
DHA Content [3, 7]: 1,344.0 mg based on 100 g of egg yolk solution
DHA Content [3, 8]: 1,493.1 mg based on 100 g of egg yolk solution
Weekly Body Weight Gain ([4]; after breeding for 7 weeks): 462.5 g
Liveability ([4]; after breeding for 7 weeks, 200 chickens per group): 96.33%
Effect on liveability, weekly body weight gain, cholesterol content, K, TBA and POV values, in words ([4]; all indices of Test Example 3): no effect was found
Change in POV Value after 10 Days Storage ([5]; Breast Meat): 1.52
Change in TBA Value after 10 Days Storage ([5]; Breast Meat): 0.44
K Value of Chicken Meat after 10 Days of Storage ([5]; Breast Meat): 55.3
Change in POV Value after 10 Days Storage ([5]; Chicken Fat): 1.80
Change in TBA Value after 10 Days Storage ([5]; Chicken Fat): 0.42
Change in POV Value after 10 Days Storage ([5]; Leg Meat): 1.53
Change in TBA Value after 10 Days Storage ([5]; Leg Meat): 0.40
K Value of Chicken Meat after 10 Days of Storage ([5]; Leg Meat): 55.4
Each Egg Weight ([6]; 4M after initiation of test): 58.6 g
Rate of Egg Production ([6]; 4M after initiation of test): 92.3%
Weight of Eggs Produced Per Day ([6]; 4M after initiation of test): 53.97 g
Liveability ([6]; 4M after initiation of test): 98.90%
Number of Eggs Produced ([6]; 4M): 295,589 ct
Weight of Produced Eggs ([6]; 4M): 17,321.5 kg
Each Egg Weight ([6]; 8M after initiation of test): 61.7 g
Rate of Egg Production ([6]; 8M after initiation of test): 82.9%
Weight of Eggs Produced Per Day ([6]; 8M after initiation of test): 51.05 g
Liveability ([6]; 8M after initiation of test): 97.81%
Number of Eggs Produced ([6]; 8M): 714,941 ct
Weight of Produced Eggs ([6]; 8M): 44,111.9 kg
Each Egg Weight ([6]; 12M after initiation of test): 63.1 g
Rate of Egg Production ([6]; 12M after initiation of test): 72.9%
Weight of Eggs Produced Per Day ([6]; 12M after initiation of test): 47.68 g
Liveability ([6]; 12M after initiation of test): 95.02%
Number of Eggs Produced ([6]; 12M): 1,054,111 ct
Weight of Produced Eggs ([6]; 12M): 66,514.4 kg
Effect on producibility indices (liveability, rate of egg production, egg weight, eggs produced), in words ([6]; compared with poultry house Q given only an ordinary feed / houses H to R): an effect of addition of these additives was not found
